Assay results published in patent US7465722B2, “Biphenyl vasopressin agonists” (Wyeth, priority 2001, dated 2008).

How the values were obtained:
[1] = target: T1, Vasopressin V2 (Rattus norvegicus, UniProt Q00788); experiment: Vasopressin V2 agonist effects of test compounds in normal conscious water-loaded rats; type: in vivo; conditions: oral dose of 10 mg/Kg, urine collected for four hours, Sprague-Dawley (CD) rats; for Urine Volume (% decrease): percent decrease in urine volume vs control; for Urinary Osmolality (% increase): percent increase in osmolality vs control
T1 construct: Vasopressin V2 Agonist Effects of Test Compounds in Normal Conscious Water-Loaded Rats; from tissue; host or cells: whole animal: conscious Sprague-Dawley rats (kidney collecting ducts in vivo)
Text: Vasopressin V2 Agonist Effects of Test Compounds in Normal Conscious Water-Loaded Rats
Male or female normotensive Sprague-Dawley rats (Charles River Laboratories, Inc., Kingston, N.Y.) of 350-500 g body weight were supplied with standard rodent diet (Purina Rodent Lab. Chow 5001) and water ad libitum. On the day of test, rats were placed individually into metabolic cages equipped with devices to separate the feces from the urine and containers for collection of urine. A test compound or a reference agent was given at an oral dose of 10 mg/Kg in a volume of 10 mL/Kg. The vehicle used was 2.5% preboiled corn starch in 20% dimethylsulfoxide (DMSO). Thirty minutes after dosing the test compound, rats were gavaged with water at 30 mL/Kg into the stomach using a feeding needle. During the test, rats were not provided with water or food. Urine was collected for four hours after dosing of the test compound. At the end of four hours, urine volume was measured. Urinary osmolality was determined using a Fiske One-Ten Osmometer (Fiske Associates, Norwood, Mass., 02062) or an Advanced CRYOMATIC Osmometer, Model 3C2 (Advanced Instruments, Norwood, Mass.). Determinations of Na^+, K^+ and Cl^− ion were carried out using ion specific electrodes in a Beckman SYNCHRON ELISE Electrolyte System analyzer. The urinary osmolality should increase proportionally. In the screening test, two rats were used for each compound. If the difference in the urine volume of the two rats was greater than 50%, a third rat was used.

T1 sequence (Q00788 whole entry): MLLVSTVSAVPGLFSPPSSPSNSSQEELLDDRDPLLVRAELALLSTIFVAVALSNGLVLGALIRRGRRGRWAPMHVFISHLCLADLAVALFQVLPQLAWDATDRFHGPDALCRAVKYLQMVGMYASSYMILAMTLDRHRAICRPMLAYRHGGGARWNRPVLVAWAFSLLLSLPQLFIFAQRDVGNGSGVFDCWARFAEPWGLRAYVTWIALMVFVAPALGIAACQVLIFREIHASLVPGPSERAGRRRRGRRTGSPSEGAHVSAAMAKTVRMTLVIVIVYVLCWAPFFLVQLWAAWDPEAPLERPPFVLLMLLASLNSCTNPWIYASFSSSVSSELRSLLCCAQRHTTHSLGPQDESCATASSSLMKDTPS

Structure (SMILES)	melting point [°C]	Urine Volume (% decrease) [1] [%]	Urinary Osmolality (% increase) [1] [%]
CN1c2ccccc2N(C(=O)c2ccc(-c3ccccc3)cc2)Cc2cccnc21 [Example 5, [1,1′-Biphenyl]-4-yl-(11-methyl-5,11-dihydro-benzo[b]pyrido[2,3-e][1,4]diazepin-6-yl)-methanone]	220 to 223	22	26
COc1ccc(-c2ccc(C(=O)N3Cc4cccn4Cc4ccccc43)cc2)cc1 [Example 3, (10,11-Dihydro-5H-pyrrolo[2,1-c][1,4]benzodiazepin-10-yl)-(4′-methoxy[1,1′-biphenyl]-4-yl)-methanone]	187 to 189	18	78
O=C(c1ccc(-c2ccccc2)cc1)N1Cc2cccnc2Nc2ccccc21 [Example 4, [1,1′-Biphenyl]-4-yl-(5,11-dihydro-benzo[b]pyrido[2,3-e][1,4]diazepin-6-yl)-methanone]	175 to 177	56	151
O=C(c1ccc(-c2ccccc2)nc1)N1Cc2cccn2Cc2ccccc21 [Example 9, (5H,11H-Benzo[e]pyrrolo[1,2-a][1,4]diazepin-10-yl)-(6-phenyl-pyridin-3-yl)-methanone]	171 to 174	62	156
COc1ccccc1-c1ccc(C(=O)N2Cc3cccn3Cc3ccccc32)cc1 [Example 1, (2′-Methoxy-[1,1′-biphenyl]-4-yl)-(5H,11H-pyrrolo[2,1-c][1,4]benzodiazepin-10-yl)-methanone]	145 to 147	67	163
CN1c2ccccc2CN(C(=O)c2ccc(-c3ccccc3)cc2)c2ccccc21 [Example 7, [1,1′-Biphenyl]-4-yl-(5-methyl-5,11-dihydro-10H-dibenzo[b,e][1,4]diazepin-10-yl)methanone]	198 to 201	70	189
O=C(c1ccc(-c2ccccc2)cc1)N1Cc2ccccc2Nc2ccccc21 [Example 6, [1,1′-Biphenyl]-4-yl-(5,11-dihydro-10H-dibenzo[b,e][1,4]diazepin-10-yl)methanone]	180 to 182	87	247
COc1ccc(-c2ccc(C(=O)N3Cc4cccn4Cc4ccccc43)c(C)c2)cc1 [Example 10, (5H,11H-Benzo[e]pyrrolo[1,2-a][1,4]diazepin-10-yl)-(4′-methoxy-3-methyl-[1,1′-biphenyl]-4-yl)-methanone]	–	60	234
O=C(c1ccc(-c2ccccc2)cc1)N1CCCCc2sccc21 [Example 8, [1,1′-Biphenyl]-4-yl-(5,6,7,8-tetrahydro-thieno[3,2-b]azepin-4-yl)-methanone]	164 to 166	35	73
Cc1cccc(-c2ccc(C(=O)N3Cc4cccn4Cc4ccccc43)cc2)c1 [Example 2, (10,11-Dihydro-5H-pyrrolo[2,1-c][1,4]benzodiazepin-10-yl)-(3′-methyl-[1,1′-biphenyl]-4-yl)-methanone]	128 to 130	27	33
